Data from patent US20260240765A1, “RIFAMYCIN-QUINOLIZINONE COUPLED MOLECULE OINTMENT AND METHOD FOR PREPARING SAME” (Tennor Therapeutics (Zhongshan) Limited, priority 2022, published 2026).

Key:
[1] = Saturation solubility of API in ointment bases; format: physicochemical
Experimental: (§1) Experimental steps: About 340 mg of API was added gradually and slowly to about 5 g of PEG400 (in a water bath at 40° C.), and the mixture was dissolved by magnetic stirring. The orange-red mixture was gradually viscous and could no longer be stirred. About 7 g of PEG400 was added gradually and stirred for another 20 min. The resulting mixture was divided into two portions, one portion was maintained in a water bath at 40° C., and the other portion was cooled to room temperature. Both portions were filtered through a PES water membrane (13 mm, 0.45 μm), and the filtrates were collected for content analysis.
as §1, with “About 400” for “Experimental steps: About 340”, “About 400 mg of” for “steps: About 340 mg of”, “g of propylene glycol (in a” for “g of PEG400 (in a”, “mixture was stirred for dissolution. The orange-red” for “mixture was dissolved by magnetic stirring. The orange-red”

[2] = cited from earlier work

Saturation solubility ([1]; in PEG400, 40° C.): 23.79 mg/g
Saturation solubility ([1]; in PEG400, room temperature): 5.80 mg/g
Saturation solubility ([1]; in propylene glycol, 40° C.): 0.65 mg/g
Saturation solubility ([1]; in propylene glycol, room temperature): 0.15 mg/g
Structure (SMILES): CO[C@H]1/C=C/O[C@@]2(C)Oc3c(C)c(O)c4c(O)c(c(/C=N/N5CCC(N(C)C6([C@@H]7CCN(c8c(F)cn9c(=O)c(C(=O)O)cc(C%10CC%10)c9c8C)C7)CC6)CC5)c(O)c4c3C2=O)NC(=O)/C(C)=C\C=C\[C@H](C)[C@H](O)[C@@H](C)[C@@H](O)[C@@H](C)[C@H](OC(C)=O)[C@@H]1C [API, rifamycin-quinolizinone coupling molecule]
Solubility in dichloromethane, polyethylene glycol 400, and dimethyl sulfoxide [2]: soluble
Solubility in ethanol, methanol, and diethyl ether [2]: almost insoluble
Water solubility [2]: low
Oxidation on exposure to air ([2]; phenol form converts to quinone form): easily to be oxidized
pH of maximum water solubility ([2]; water solubility is pH-dependent, relatively low at low pH): 10
